Tested on: Geobacillus stearothermophilus spores (ATCC 7953)
Test: Fluorescence of enzyme substrates in culture media with Geobacillus stearothermophilus spores (96-well plate, 60° C.)
Format: cell-based
Conditions: for MEASURED FLUORESCENCE, RFU 10 Sec / MEASURED FLUORESCENCE, RFU +5 min / MEASURED FLUORESCENCE, RFU +10 min / MEASURED FLUORESCENCE, RFU +30 min / MEASURED FLUORESCENCE, RFU 10 sec: substrate 0.3 mg/mL, 60° C.; for fluorescent signal in the presence of Geobacillus stearothermophilus spores compared with MUG and 8F-MUG: high and low spore levels, two low pH levels, MUG also at its optimal pH of 8.0
Protocol: Culture media was prepared by dissolving by dissolving 2 g/L phytone peptone (BD BBL 211906) and 0.2 g/L L-alanine (Sigma 05129) in deionized water. 1N NaOH or 0.1 N HCl were used to adjust pH, and media were brought to volume and filter sterilizing using a 0.22 micron polyethersulfone (PES) filter. Stock solutions (25 mg/ml) of 6′-chloro-4′-methylumbelliferyl-a-D-glucopyranoside, 8′-chloro-4′-methylumbelliferyl-a-D-glucopyranoside, 8′-fluoro-4′-methylumbelliferyl-a-D-glucopyranoside, and 4-methylumbelliferyl-a-D-glucopyranoside were prepared in DMSO. The fluorogenic a-glucosidase substrates were added to culture media at a final concentration of 0.3 mg/ml.
(§1) Culture media (pH 6.7) containing 6′-chloro-4′-methylumbelliferyl α-D-glucopyranoside (0.3 mg/mL) was each added to eight wells (100 microliters per well) of a black 96-well microtiter plate with (NUNC #165301, Thermo Fisher Scientific, Waltham, Massachusetts). A 5-microliter aqueous suspension containing 5×10^3 Geobacillus stearothermophilus spores (ATCC 7953) was added to 4 of the wells for each medium in the microtiter plate. […] The top of the plate was covered with an optically clear sealing film (product #4311971, Applied Biosystems Corporation, Foster City, California). The plate was warmed at 60° C. and shaken in a linear direction. Fluorescence readings (360 nm excitation/450 nm emission at 50% gain) were taken from the bottom of the plate. A reading was taken at an initial time point of 10 seconds and then at +1-minute intervals thereafter. A Synergy Neo2 fluorescence plate reader (BioTek Company, Winooski, Vermont) was used. In Table 1, the mean fluorescence values detected (RFU) at times of 10 seconds, +5 minutes, +10 minutes, and +30 minutes are reported. The mean fluorescence values detected for the control wells were 511 RFU at 10 seconds; 426 RFU at +5 minutes: 373 RFU at +10 minutes, and 310 RFU at +30 minutes.
as §1, with “(pH 7.0)” for “(pH 6.7)”, “Table 2,” for “Table 1,”, “were 512” for “were 511”, “seconds; 417” for “seconds; 426”, “+5 minutes; 363” for “+5 minutes: 373”, “and 308” for “and 310”
Culture media (pH 6.7) containing 6′-chloro-4′-methylumbelliferyl α-D-glucopyranoside (0.3 mg/mL) was each added to eight wells (100 microliters per well) of a black 96-well microtiter plate with (NUNC #165301, Thermo Fisher Scientific, Waltham, Massachusetts). A 5-microliter aqueous suspension containing 5×10^5 Geobacillus stearothermophilus spores (ATCC 7953) was added to 4 of the wells for each medium in the microtiter plate. […] The top of the plate was covered with an optically clear sealing film (product #4311971, Applied Biosystems Corporation, Foster City, California). The plate was warmed at 60° C. and shaken in a linear direction. Fluorescence readings (360 nm excitation/450 nm emission at 50% gain) were taken from the bottom of the plate. […]

[1] = 5 × 10^3 spores, culture media pH 6.7, 360 nm ex/450 nm em
[2] = 5 × 10^3 spores, culture media pH 6.7
[3] = 5 × 10^3 spores, culture media pH 7.0
[4] = 5 × 10^5 spores, culture media pH 6.7
[5] = 5 × 10^5 spores, culture media pH 7.0
[6] = 5 × 10^3 spores, culture media pH 8.0
[7] = 5 × 10^5 spores, culture media pH 8.0

| SMILES | MEASURED FLUORESCENCE, RFU 10 Sec [1] | MEASURED FLUORESCENCE, RFU +5 min [2] | MEASURED FLUORESCENCE, RFU +10 min [2] | MEASURED FLUORESCENCE, RFU +30 min [2] | MEASURED FLUORESCENCE, RFU 10 Sec [3] | MEASURED FLUORESCENCE, RFU +5 min [3] | MEASURED FLUORESCENCE, RFU +10 min [3] | MEASURED FLUORESCENCE, RFU +30 min [3] | MEASURED FLUORESCENCE, RFU 10 sec [4] | MEASURED FLUORESCENCE, RFU +5 min [4] | MEASURED FLUORESCENCE, RFU +10 min [4] | MEASURED FLUORESCENCE, RFU +30 min [4] | MEASURED FLUORESCENCE, RFU 10 sec [5] | MEASURED FLUORESCENCE, RFU +5 min [5] | MEASURED FLUORESCENCE, RFU +10 min [5] | MEASURED FLUORESCENCE, RFU +30 min [5] | fluorescent signal in the presence of Geobacillus stearothermophilus spores compared with MUG and 8F-MUG | further results |
| --- | --- | --- | --- | --- | --- | --- | --- | --- | --- | --- | --- | --- | --- | --- | --- | --- | --- | --- |
| Cc1cc(=O)oc2c(Cl)c(O[C@H]3O[C@H](CO)[C@@H](O)[C@H](O)[C@H]3O)ccc12 [Example 2, 8′-chloro-4′-methylumbelliferyl α-D-glucopyranoside] | 1164 RFU | 3013 RFU | 6278 RFU | 15253 RFU | 1500 RFU | 3370 RFU | 6612 RFU | 16521 RFU | 21302 RFU | 56949 RFU | 73987 RFU | 81560 RFU | 21883 RFU | 58454 RFU | 77112 RFU | 83010 RFU | higher fluorescent signal | – |
| Cc1cc(=O)oc2cc(O[C@H]3O[C@H](CO)[C@@H](O)[C@H](O)[C@H]3O)ccc12 [MUG, 4′-methylumbelliferyl-α-D-glucopyranoside, reference compound] | 430 RFU | 403 RFU | 464 RFU | 991 RFU | – | – | – | – | 895 RFU | 3260 RFU | 8049 RFU | 29586 RFU | – | – | – | – | – | MEASURED FLUORESCENCE, RFU 10 Sec [6]: 540 RFU; MEASURED FLUORESCENCE, RFU +5 min [6]: 658 RFU; MEASURED FLUORESCENCE, RFU +10 min [6]: 993 RFU; MEASURED FLUORESCENCE, RFU +30 min [6]: 2891 RFU; MEASURED FLUORESCENCE, RFU 10 sec [7]: 2644 RFU; MEASURED FLUORESCENCE, RFU +5 min [7]: 12059 RFU; MEASURED FLUORESCENCE, RFU +10 min [7]: 29277 RFU; MEASURED FLUORESCENCE, RFU +30 min [7]: 75861 RFU |
| Cc1cc(=O)oc2c(F)c(O[C@H]3O[C@H](CO)[C@@H](O)[C@H](O)[C@H]3O)ccc12 [Example 8F-MUG, 8′-fluoro-4′-methylumbelliferyl α-D-glucopyranoside, reference compound] | 693 RFU | 1422 RFU | 2869 RFU | 8410 RFU | 777 RFU | 1573 RFU | 3153 RFU | 9038 RFU | 8975 RFU | 31069 RFU | 50175 RFU | 67041 RFU | 8171 RFU | 34178 RFU | 56663 RFU | 70392 RFU | – | – |
| Cc1cc(=O)oc2cc(O[C@H]3O[C@H](CO)[C@@H](O)[C@H](O)[C@H]3O)c(Cl)cc12 [Example 1, 6′-chloro-4′-methylumbelliferyl α-D-glucopyranoside] | 1013 RFU | 2251 RFU | 4622 RFU | 12582 RFU | 1226 RFU | 2377 RFU | 4424 RFU | 11941 RFU | 17227 RFU | 53202 RFU | 79375 RFU | 98077 RFU | 18386 RFU | 53621 RFU | 81061 RFU | 99019 RFU | higher fluorescent signal | – |

— US20240307577A1, “CHLORINATED 4'-ALKYLUMBELLIFERYL ALPHA-D-GLUCOPYRANOSIDE AND METHOD OF ASSESSING EFFICACY OF A STERILIZATION PROCESS INCLUDING THE SAME” (3M INNOVATIVE PROPERTIES COMPANY, priority 2021, published 2024)
